Reference: US9101620B2, “Polymorph of 3-(substituteddihydroisoindolinone-2-yl)-2,6-dioxopiperidine, and pharmaceutical compositions thereof” (Nanjing Cavendish Bio-Engineering Technology Co., Ltd., priority 2009, dated 2015)
“Also recorded” adds a separate entry of the source.

How the values were obtained:
Type in all cases: physicochemical
[1] = Observation test of long-term sample storage (crystal transformation); details: long-term sample storage in high humidity; DSC scanning
[2] = High humidity test (room temperature, 75±5% relative humidity); details: for Appearance / Content / Weight gain of moisture absorption: room temperature, 75±5% relative humidity
Procedure: (§1) The raw material of Polymorph 1 of 3-(4-amino-1-oxo-1,3-dihydro-2H-isoindole-2-yl)-piperidine-2,6-dione (hemihydrate) was distributed homogeneously in open petri dish with thickness of the raw material not more than 5 mm and put into thermostatic and humidostatic incubator at room temperature (about 25° C.) and 75±5% relative humidity. Sample was tested at the 5th and 10th day respectively and the results were contrasted with that of the Day 0. Results were listed in Tab. 4. After high humidity test of 75±5% relative humidity for 10 days, the X-ray powder diffraction pattern was shown in FIG. 9; DSC diagram was in FIG. 10-1; TGA diagram was in FIG. 10-2.
as §1, with “Polymorph II” for “Polymorph 1”, “3-(4-amino-1-oxo-1,3-dihydro-2H-isoindole-2-yl)-piperidine-2,6-dione” for “3-(4-amino-1-oxo-1,3-dihydro-2H-isoindole-2-yl)-piperidine-2,6-dione (hemihydrate)”, “Tab. 9.” for “Tab. 4.”, “FIG. 20;” for “FIG. 9;”, “FIG. 21-1;” for “FIG. 10-1;”, “FIG. 21-2.” for “FIG. 10-2.”
as §1, with “Polymorph III” for “Polymorph 1”, “3-(4-amino-1-oxo-1,3-dihydro-2H-isoindole-2-yl)-piperidine-2,6-dione” for “3-(4-amino-1-oxo-1,3-dihydro-2H-isoindole-2-yl)-piperidine-2,6-dione (hemihydrate)”, “Tab. 14.” for “Tab. 4.”, “FIG. 31;” for “FIG. 9;”, “FIG. 32-1;” for “FIG. 10-1;”, “FIG. 32-2.” for “FIG. 10-2.”

[3] = High temperature test (60° C.); details: for Appearance / Content / Related substance: 60° C.
Excerpt: The conditions and methods of related substance test involved in this invention were in accordance with HPLC (Appendix VD of Chinese Pharmacopoeia Edition 2005).
Chromatographic conditions and system applicability: octadecylsilane bonded silica as the filler; 0.01 mol/L of potassium dihydrogen phosphate (adjusted to pH 3.5 by phosphoric acid)-methanol-acetonitrile (80:15:5) as the mobile phase; detection wavelength was 240 nm; the number of theoretical plates should be not less than 2000, calculated according to the peak of 3-(4-amino-1-oxo-1,3-dihydro-2H-isoindole-2-yl)-piperidine-2,6-dione. The resolution of the peak of 3-(4-amino-1-oxo-1,3-dihydro-2H-isoindole-2-yl)-piperidine-2,6-dione from the peaks of adjacent impurities should meet requirements.
The raw material of Polymorph I of 3-(4-amino-1-oxo-1,3-dihydro-2H-isoindole-2-yl)-piperidine-2,6-dione (hemihydrate) was put into a clean sealed glass bottle and then put in thermostatic drying chamber at 60° C. Sample was tested at the 5th and 10th day respectively and the results were contrasted with that of the Day 0. Results were listed in Tab. 3. After high temperature test of 60° C. for 10 days, the X-ray powder diffraction pattern was shown FIG. 7; DSC diagram was in FIG. 8.
The raw material of Polymorph II of 3-(4-amino-1-oxo-1,3-dihydro-2H-isoindole-2-yl)-piperidine-2,6-dione was put into a clean sealed glass bottle and then put in thermostatic drying chamber at 60° C. Sample was tested at the 5th and 10th day respectively and the results were contrasted with that of the Day 0. Results were listed in Tab. 8. After high temperature test of 60° C. for 10 days, the X-ray powder diffraction pattern was shown in FIG. 18; DSC diagram was in FIG. 19.
The raw material of Polymorph III of 3-(4-amino-1-oxo-1,3-dihydro-2H-isoindole-2-yl)-piperidine-2,6-dione was put into a clean sealed glass bottle and then put in thermostatic drying chamber at 60° C. Sample was tested at the 5th and 10th day respectively and the results were contrasted with that of the Day 0. Results were listed in Tab. 13. After high temperature test of 60° C. for 10 days, the X-ray powder diffraction pattern was shown in FIG. 29; DSC diagram was in FIG. 30.

[4] = Solubility test according to Chinese Pharmacopoeia Edition 2005; details: for Dissolving status: within 30 minutes
Procedure: Test was performed according to the Examples of Chinese Pharmacopoeia Edition 2005. Method: a definite quantity of the Polymorph I of 3-(4-amino-1-oxo-1,3-dihydro-2H-isoindole-2-yl)-piperidine-2,6-dione (hemihydrate) measured accurately was added into a certain quantity of solvent slowly, while the mixture was shaken strongly for 30 seconds every 5 minutes and the dissolving status within 30 minutes was observed. Results were listed in Tab. 1.
Test was performed according to the Examples of Chinese Pharmacopoeia Edition 2005. Method: a definite quantity of the (acetonitrile) solvated Polymorph II of 3-(4-amino-1-oxo-1,3-dihydro-2H-isoindole-2-yl)-piperidine-2,6-dione measured accurately was added into a certain quantity of solvent slowly, while the mixture was shaken strongly for 30 seconds every 5 minutes and the dissolving status within 30 minutes was observed. Results were listed in Tab. 61.
Test was performed according to the Examples of Chinese Pharmacopoeia Edition 2005. Method: a definite quantity of the (acetone) solvated polymorph III of 3-(4-amino-1-oxo-1,3-dihydro-2H-isoindole-2-yl)-piperidine-2,6-dione measured accurately was added into a certain quantity of solvent slowly while the mixture was shaken strongly for 30 seconds every 5 minutes and the dissolving status within 30 minutes was observed. Results were listed in Tab. 11.

Structure (SMILES): Nc1cccc2c1CN(C1CCC(=O)NC1=O)C2=O (single isomer, unassigned) [Polymorph II, 3-(4-amino-1-oxo-1,3-dihydro-2H-isoindole-2-yl)-piperidine-2,6-dione]
- Crystal transformation [1]: a small amount of Polymorph II had transformed to Polymorph I
- Change of appearance and content (in words) ([2]; high humidity test, summary): few obvious change
- Moisture absorption (in words) ([2]; high humidity test, summary): lower moisture absorption
- Appearance ([2]; 0 days): off-white powder
- Content ([2]; 0 days): 99.89%
- Appearance ([2]; 5 days): off-white powder
- Content ([2]; 5 days): 99.87%
- Weight gain of moisture absorption ([2]; 5 days): 1.33%
- Appearance ([2]; 10 days): off-white powder
- Content ([2]; 10 days): 99.87%
- Weight gain of moisture absorption ([2]; 10 days): 2.15%
- Appearance ([3]; 0 days): Off-white powder
- Content ([3]; 0 days): 99.89%
- Related substance ([3]; 0 days): 0.09%
- Appearance ([3]; 5 days): Off-white powder
- Content ([3]; 5 days): 99.86%
- Related substance ([3]; 5 days): 0.09%
- Appearance ([3]; 10 days): Off-white powder
- Content ([3]; 10 days): 99.87%
- Related substance ([3]; 10 days): 0.10%
- Variation of appearance and content (in words) ([3]; high temperature (60° C.) test, summary): few significant variation
- Conclusion (solubility) ([4]; 0.1 mol/L HCl solution): sparingly soluble
- Dissolving status ([4]; 0.1 mol/L HCl solution): fully
- Conclusion (solubility) ([4]; 0.1 mol/L NaOH solution): slightly soluble
- Dissolving status ([4]; 0.1 mol/L NaOH solution): fully
- Conclusion (solubility) ([4]; DMF (N,N-dimethylformamide)): freely soluble
- Dissolving status ([4]; DMF): fully
- Conclusion (solubility) ([4]; DMSO (dimethylsulfoxide)): freely soluble
- Dissolving status ([4]; DMSO): fully
- Conclusion (solubility) ([4]; acetic acid): sparingly soluble
- Dissolving status ([4]; acetic acid): fully
- Conclusion (solubility) ([4]; acetone): slightly soluble
- Dissolving status ([4]; acetone): fully
- Conclusion (solubility) ([4]; acetonitrile): slightly soluble
- Dissolving status ([4]; acetonitrile): fully
- Conclusion (solubility) ([4]; ethanol): very slightly soluble
- Dissolving status ([4]; ethanol): fully
- Conclusion (solubility) ([4]; ethyl acetate): very slightly soluble
- Dissolving status ([4]; ethyl acetate): fully
- Conclusion (solubility) ([4]; methanol): very slightly soluble
- Dissolving status ([4]; methanol): fully
- Conclusion (solubility) ([4]; water): nearly insoluble; also recorded: practically
- Dissolving status ([4]; water): cannot fully
